The target in this assay is T1, cardiac voltage-gated sodium channel (NaV1.5) (Homo sapiens, UniProt Q14524).
T1 construct: gene SCN5A; human NaV1.5 channels stably expressed in HEK-293 cells, without β-subunits
Put plainly: whole-cell patch clamp, peak NaV1.[…] current at −[…] mV, HEK-293 cells. The class given is cell-based.

The term IC50 denotes the concentration needed to halve the response being measured.

T1 sequence (Q14524 whole entry): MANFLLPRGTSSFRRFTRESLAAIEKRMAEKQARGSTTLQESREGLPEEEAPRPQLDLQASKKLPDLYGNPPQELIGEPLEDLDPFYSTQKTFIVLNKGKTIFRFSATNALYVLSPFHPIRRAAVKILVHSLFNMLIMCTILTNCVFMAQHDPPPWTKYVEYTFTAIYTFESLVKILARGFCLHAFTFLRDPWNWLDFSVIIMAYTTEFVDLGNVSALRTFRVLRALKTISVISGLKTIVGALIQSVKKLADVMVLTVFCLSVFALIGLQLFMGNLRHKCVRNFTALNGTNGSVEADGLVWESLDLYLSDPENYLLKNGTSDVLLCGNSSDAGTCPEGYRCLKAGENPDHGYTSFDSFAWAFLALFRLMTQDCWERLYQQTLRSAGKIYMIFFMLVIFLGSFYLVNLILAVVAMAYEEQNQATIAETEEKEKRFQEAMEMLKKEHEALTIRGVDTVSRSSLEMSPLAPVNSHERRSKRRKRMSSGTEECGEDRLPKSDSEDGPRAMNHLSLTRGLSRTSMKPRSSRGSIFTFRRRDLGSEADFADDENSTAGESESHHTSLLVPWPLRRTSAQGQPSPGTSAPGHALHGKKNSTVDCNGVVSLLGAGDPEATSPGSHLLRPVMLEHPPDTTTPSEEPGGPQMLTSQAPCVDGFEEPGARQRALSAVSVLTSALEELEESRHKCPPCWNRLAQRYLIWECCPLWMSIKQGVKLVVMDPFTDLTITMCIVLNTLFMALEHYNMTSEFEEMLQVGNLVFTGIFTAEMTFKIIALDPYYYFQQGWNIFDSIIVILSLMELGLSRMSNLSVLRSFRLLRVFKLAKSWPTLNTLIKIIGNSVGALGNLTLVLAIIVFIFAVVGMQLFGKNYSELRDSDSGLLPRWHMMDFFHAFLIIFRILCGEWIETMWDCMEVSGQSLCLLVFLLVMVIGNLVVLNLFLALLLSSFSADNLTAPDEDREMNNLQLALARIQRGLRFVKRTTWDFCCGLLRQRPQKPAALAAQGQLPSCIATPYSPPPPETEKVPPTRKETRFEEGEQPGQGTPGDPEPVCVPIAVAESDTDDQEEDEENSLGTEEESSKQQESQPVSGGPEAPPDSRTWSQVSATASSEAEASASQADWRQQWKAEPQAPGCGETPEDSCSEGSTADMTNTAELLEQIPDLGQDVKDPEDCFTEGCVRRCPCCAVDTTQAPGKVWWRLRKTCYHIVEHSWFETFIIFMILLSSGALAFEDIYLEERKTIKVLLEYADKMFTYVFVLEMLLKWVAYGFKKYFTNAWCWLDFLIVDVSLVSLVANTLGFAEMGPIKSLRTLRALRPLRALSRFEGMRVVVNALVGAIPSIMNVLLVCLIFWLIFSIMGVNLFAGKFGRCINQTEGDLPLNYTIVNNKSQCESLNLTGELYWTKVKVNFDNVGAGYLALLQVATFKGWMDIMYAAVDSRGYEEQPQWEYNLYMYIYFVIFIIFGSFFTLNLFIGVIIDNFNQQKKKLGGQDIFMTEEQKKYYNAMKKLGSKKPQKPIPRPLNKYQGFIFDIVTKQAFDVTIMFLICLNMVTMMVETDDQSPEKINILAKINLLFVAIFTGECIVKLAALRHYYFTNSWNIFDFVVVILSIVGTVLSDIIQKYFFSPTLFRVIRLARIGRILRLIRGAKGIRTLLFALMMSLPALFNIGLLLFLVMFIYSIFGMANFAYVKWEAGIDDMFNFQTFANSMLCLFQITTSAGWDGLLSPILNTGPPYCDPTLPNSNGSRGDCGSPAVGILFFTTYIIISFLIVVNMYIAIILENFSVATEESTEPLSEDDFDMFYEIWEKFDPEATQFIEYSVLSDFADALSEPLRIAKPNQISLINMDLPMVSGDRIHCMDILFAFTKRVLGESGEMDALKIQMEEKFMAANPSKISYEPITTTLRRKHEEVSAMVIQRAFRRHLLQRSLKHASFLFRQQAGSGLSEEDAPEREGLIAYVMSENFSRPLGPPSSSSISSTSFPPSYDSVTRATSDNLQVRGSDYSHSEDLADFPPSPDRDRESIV

Turning to `Fc1ccc([C@@H]2CCNC[C@H]2COc2ccc3c(c2)OCO3)cc1` [paroxetine], the IC50 was 6.8 ± 1.1 µM.

The values are drawn from PMC9915920, “The Antidepressant Paroxetine Reduces the Cardiac Sodium Current” (International Journal of Molecular Sciences, 2023).
